Assay results from patent US20130005676A1 (UNIVERSITY OF ROCHESTER, priority 2009, published 2013).
Entries after “also recorded” stand apart in the source; their conditions may differ.

Columns and labels:
adenosine kinase [1] = target: T1, adenosine kinase (Homo sapiens, UniProt P55263); conditions: adenosine as substrate; cited from earlier work
adenosine kinase [2] = target: T1, adenosine kinase; conditions: cited from earlier work
Rat Parotid Ecto-ATPase = conditions: cited from earlier work
Ecto-ATPase [3] = conditions: cited from earlier work
P2 receptors = conditions: cited from earlier work
Ecto-ATPase [4] = conditions: Crack et al.; cited from earlier work
[5] = tested on: enzymes involved in extracellular degradation of AMP; assay: Phosphate production (Malachite Green) in tissue sections from the Zusanli point; type: biochemical, mice; conditions: for dephosphorylation of AMP (phosphate production): inhibitor 500 μM, tissue in 1 mM AMP for 45 min; for rate of phosphate generation: 1 mM added as substrate, n=3
adenosine transport = adenosine transport inhibitors; unit inferred; cited from earlier work
[6] = tested on: mice with inflammatory pain (CFA); assay: Inflammatory pain (CFA in paw): mechanical allodynia (Von Frey) and thermal hyperalgesia; type: in vivo
Description: Peripheral inflammation was induced by injection of Complete Freud Adjuvant (CFA, mixed with an equal amount of oil, […], Jackson labs) (Raghavendra et al., “Complete Freunds Adjuvant-Induced Peripheral Inflammation Evokes Glial Activation and Proinflammatory Cytokine Expression in the CNS,” Eur. J. Neurosci. 20:467-473 (2004), which is hereby incorporated by reference in its entirety). […] Neuropathic pain was induced by ligation of the sciatic nerve with 4.0 polypropylene suture in mice sedated with ketamine (60 mg/kg, i.p.) and xylazine (10 mg/kg, i.p.) (Bennett et al., “A Peripheral Mononeuropathy in Rat that Produces Disorders of Pain Sensation Like Those Seen in Man,” Pain 33:87-107 (1988); Martucci et al., “The Purinergic Antagonist PPADS Reduces Pain Related Behaviours and Interleukin-1 beta, Interleukin-6, iNOS and nNOS Overproduction in Central and Peripheral Nervous System After Peripheral Neuropathy in Mice,” Pain 137:81-95 (2008), which are hereby incorporated by reference in their entirety).
Mechanical allodynia was evaluated using repeated stimulations with a Von Frey filament exerting 0.02 grams of force onto the plantar surface (Colburn et al., “The Effect of Site and Type of Nerve Injury on Spinal Glial Activation and Neuropathic Pain Behavior,” Exp. Neurol. 157:289-304. (1999), which is hereby incorporated by reference in its entirety). The percentage of negative responses of a total of 10 trials was calculated for each foot. Thermal hyperalgesia was assessed using an Analgesymeter (Ugo Basile, Comerio, Italy) (Stein et al., “Intrinsic Mechanisms of Antinociception in Inflammation: Local Opioid Receptors and Beta-Endorphin,” J. Neurosci. 10:1292-1298 (1990), which is hereby incorporated by reference in its entirety). In short, a mobile radiant heat source was focused on the hind paw, and the paw withdrawal latencies were defined as the time taken by the mouse to remove its hind paw from the heat source (max 20 sec to avoid tissue damage). The paw withdrawal was repeated three times for each foot and the average calculated. To avoid conditioning to stimulation a 5 min rest period was interposed between each trial in both thermal and mechanical tests. Behavioral parameters were evaluated prior to intraplantar injection of CFA or nerve ligation (i.e. day 0), and again on day 3-4 in mice receiving the CFA injection, and at day 5-7 in mice with nerve ligation unless otherwise noted. Prior to injection of CCPA, saline, or acupuncture in the Zusanli point, the mice were placed in a restraining under light isoflurane anesthesia (˜1%). The total duration of anesthesia was ˜2 min and mice with inflammatory, neurogenic pain, and their controls were treated similarly. 2-chloro-N6-cyclopentyl-adenosine (CCPA, 0.1 mM, 20 μl) was injected in the Zusanli point ˜5 min before acupuncture. […] The needle was slowly rotated ˜2 time (˜20-30 sec) every 5 min for a total of 30 min during an acupuncture session. A microdialysis probe (MD-2211, Bioanalytical systems, West Lafayette, Ind.) was implanted 1-3 hrs prior to collection of microdialysis samples. The microdialysis probe was implanted in a distance of 0.4-0.6 mm from the Zusanli point. The microdialysis probe was perfused with Ringer's solution at a rate of 1 μl per minute. The microdialysates were collected on ice and the perfusate collected over a 30 min period (30 μl) was immediately frozen at −80° C. until HPLC analysis. Deoxycoformycin was administered in a dose of 50 mg/kg i.p. 30 min prior to acupuncture.

[7] = tested on: mice with inflammatory or neuropathic pain; assay: Statements covering both inflammatory and neuropathic pain models; type: in vivo; conditions: both pain models
Experimental: Peripheral inflammation was induced by injection of Complete Freud Adjuvant (CFA, mixed with an equal amount of oil, total volume 0.1 ml) in the plantar surface of the left hind paw of mice (25-30 g, Jackson labs) (Raghavendra et al., “Complete Freunds Adjuvant-Induced Peripheral Inflammation Evokes Glial Activation and Proinflammatory Cytokine Expression in the CNS,” Eur. J. Neurosci. 20:467-473 (2004), which is hereby incorporated by reference in its entirety). An equal amount of saline (0.1 ml) was injected in the right hind paw as control. […]
Mechanical allodynia was evaluated using repeated stimulations with a Von Frey filament exerting 0.02 grams of force onto the plantar surface (Colburn et al., “The Effect of Site and Type of Nerve Injury on Spinal Glial Activation and Neuropathic Pain Behavior,” Exp. Neurol. 157:289-304. (1999), which is hereby incorporated by reference in its entirety). The percentage of negative responses of a total of 10 trials was calculated for each foot. Thermal hyperalgesia was assessed using an Analgesymeter (Ugo Basile, Comerio, Italy) (Stein et al., “Intrinsic Mechanisms of Antinociception in Inflammation: Local Opioid Receptors and Beta-Endorphin,” J. Neurosci. 10:1292-1298 (1990), which is hereby incorporated by reference in its entirety). […] The paw withdrawal was repeated three times for each foot and the average calculated. […] Behavioral parameters were evaluated prior to intraplantar injection of CFA or nerve ligation (i.e. day 0), and again on day 3-4 in mice receiving the CFA injection, and at day 5-7 in mice with nerve ligation unless otherwise noted. […]

[8] = tested on: fEPSP in anterior cingulate cortex; assay: In vivo electrophysiology: fEPSP in left anterior cingulate cortex evoked by painful foot shock; design: species or system mice
Experimental: Mice were anaesthetized with 2-3% isoflurane, intubated, and artificially ventilated with a small animal ventilator (SAAR-830, CWE). Body temperature was monitored by a rectal probe and maintained at 37° C. by a heating blanket (BS4, Harvard Apparatus). A craniotomy (1-1.5 mm in diameter), centered 0.1 mm anterior to the bregma and 1.5 mm lateral from midline, was made over the left anterior cingulated cortex. A custom-made metal plate was glued to the skull with dental acrylic cement. The mice were for the remaining part of the experiment maintained at 2% isoflurane. LFP recordings were obtained from layer 4 of anterior cingulate cortex (ACC), 0.8 mm below the pial surface by a patch pipette (TW100E-4, WPI; outer diameter, 1.0 mm; inner diameter, 0.75 mm; tip diameter, 1-2 μm). […] Dura matter was kept intact. A custom-made bipolar electrode was inserted subcutaneously into the right hindpaw. High intensity stimulation (10 mA, 20 ms) were evoked every 120 sec. Lower stimulation intensities evoked either no or variable responses consistent with the idea that that ACC neurons respond primarily to painful stimuli Wei et al., “Potentiation of Sensory Responses in the Anterior Cingulate Cortex Following Digit Amputation in the Anaesthetised Rat,” J. Physiol. 532:823-833 (2001), which is hereby incorporated by reference in its entirety). The amplitude of the field EPSPs was measured using the pCLAMP 9.2 program (Axon Instruments, Inc., Foster City, Calif., USA).

[9] = tested on: mice with neuropathic pain; assay: Neuropathic pain (sciatic nerve ligation): mechanical allodynia and thermal hyperalgesia; type: in vivo
Experimental: Peripheral inflammation was induced by injection of Complete Freud Adjuvant (CFA, mixed with an equal amount of oil, total volume 0.1 ml) in the plantar surface of the left hind paw of mice (25-30 g, Jackson labs) (Raghavendra et al., “Complete Freunds Adjuvant-Induced Peripheral Inflammation Evokes Glial Activation and Proinflammatory Cytokine Expression in the CNS,” Eur. J. Neurosci. 20:467-473 (2004), which is hereby incorporated by reference in its entirety). An equal amount of saline (0.1 ml) was injected in the right hind paw as control. Neuropathic pain was induced by ligation of the sciatic nerve with 4.0 polypropylene suture in mice sedated with ketamine (60 mg/kg, i.p.) and xylazine (10 mg/kg, i.p.) (Bennett et al., “A Peripheral Mononeuropathy in Rat that Produces Disorders of Pain Sensation Like Those Seen in Man,” Pain 33:87-107 (1988); Martucci et al., “The Purinergic Antagonist PPADS Reduces Pain Related Behaviours and Interleukin-1 beta, Interleukin-6, iNOS and nNOS Overproduction in Central and Peripheral Nervous System After Peripheral Neuropathy in Mice,” Pain 137:81-95 (2008), which are hereby incorporated by reference in their entirety).
Mechanical allodynia was evaluated using repeated stimulations with a Von Frey filament exerting 0.02 grams of force onto the plantar surface (Colburn et al., “The Effect of Site and Type of Nerve Injury on Spinal Glial Activation and Neuropathic Pain Behavior,” Exp. Neurol. 157:289-304. (1999), which is hereby incorporated by reference in its entirety). The percentage of negative responses of a total of 10 trials was calculated for each foot. Thermal hyperalgesia was assessed using an Analgesymeter (Ugo Basile, Comerio, Italy) (Stein et al., “Intrinsic Mechanisms of Antinociception in Inflammation: Local Opioid Receptors and Beta-Endorphin,” J. Neurosci. 10:1292-1298 (1990), which is hereby incorporated by reference in its entirety). In short, a mobile radiant heat source was focused on the hind paw, and the paw withdrawal latencies were defined as the time taken by the mouse to remove its hind paw from the heat source (max 20 sec to avoid tissue damage). The paw withdrawal was repeated three times for each foot and the average calculated. To avoid conditioning to stimulation a 5 min rest period was interposed between each trial in both thermal and mechanical tests. Behavioral parameters were evaluated prior to intraplantar injection of CFA or nerve ligation (i.e. day 0), and again on day 3-4 in mice receiving the CFA injection, and at day 5-7 in mice with nerve ligation unless otherwise noted. Prior to injection of CCPA, saline, or acupuncture in the Zusanli point, the mice were placed in a restraining under light isoflurane anesthesia (˜1%). […]

T1 sequence (P55263 whole entry, species assumed): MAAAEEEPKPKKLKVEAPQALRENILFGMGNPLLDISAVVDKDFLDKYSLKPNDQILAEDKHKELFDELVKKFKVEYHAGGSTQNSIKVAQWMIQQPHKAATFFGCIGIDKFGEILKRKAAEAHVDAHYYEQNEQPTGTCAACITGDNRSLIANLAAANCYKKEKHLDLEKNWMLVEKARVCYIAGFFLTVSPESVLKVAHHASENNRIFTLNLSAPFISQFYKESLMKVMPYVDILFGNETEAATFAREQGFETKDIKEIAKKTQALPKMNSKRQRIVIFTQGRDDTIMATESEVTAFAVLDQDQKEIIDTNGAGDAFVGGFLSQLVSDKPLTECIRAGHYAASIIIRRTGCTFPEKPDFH

Nc1ncnc2c1ncn2[C@@H]1O[C@H](CO)[C@@H](O)[C@H]1O [adenosine]
Km (adenosine kinase [1]): ~0.02 µM

Nc1ncnc2c1c(Br)cn2[C@@H]1C[C@H](N)[C@@H](O)[C@H]1O [A-286501, N7-((1′R,2′S,3′R,4′S)-2′,3′-dihydroxy-4′-amino-cyclopentyl)-4-amino-5-bromo-pyrrolo[2,3-a]pyrimidine]
IC50 (adenosine kinase [2]): 0.47 nM

CCN(CC)c1ncnc2c1ncn2[C@@H]1O[C@H](COP(=O)(O)OP(=O)(O)C(Br)(Br)P(=O)(O)O)[C@@H](O)[C@H]1O [ARL67156]
IC50 (Rat Parotid Ecto-ATPase): 120000 nM
Ki (Ecto-ATPase [3]): 255 nM
effect on P2 receptors (P2 receptors): lack of or only has weak effect
IC50 (Ecto-ATPase [4]): 4600 nM

[O]=[Mo](=[O])([O-])[O-] [molybdate]
dephosphorylation of AMP (phosphate production) [5]: partly suppressed dephosphorylation of AMP

Nc1ncnc2c1ncn2[C@@H]1O[C@H](COP(=O)(O)CP(=O)(O)O)[C@@H](O)[C@H]1O [AOPCP]
dephosphorylation of AMP (phosphate production) [5]: did not reduce dephosphorylation of AMP

NC(=O)C1CN(CCCCC(c2ccc(F)cc2)c2ccc(F)cc2)CCN1CC(=O)Nc1c(Cl)cc(N)cc1Cl (centres unmarked) [R75231, 2-(aminocarbonyl)-N-(4-amino-2,6-dichlorophenyl)-4-[5,5-bis(4-fluorophenyl)pentyl]-1-piperazineacetamide]
Ki (adenosine transport): 0.1 nM

O=S(=O)(NCCNC/C=C/c1ccc(Br)cc1)c1cccc2cnccc12 [H-89]
CFA-induced mechanical pain hypersensitivity, contralateral paw ([6]; injected in the Zusanli point): not the contralateral paw
CFA-induced mechanical pain hypersensitivity, ipsilateral (right leg) ([6]; injected in the Zusanli point): transiently and significantly reduced; also recorded: reduced pain temporarily

Nc1ncnc2c1ncn2[C@@H]1O[C@H](COP(=O)(O)OP(=O)(O)OP(=O)(O)O)[C@@H](O)[C@H]1O [ATP]
rate of phosphate generation [5]: 0.428 ± 0.046 µM/mg/min

Nc1ncnc2c1ncn2[C@@H]1O[C@H](COP(=O)(O)O)[C@@H](O)[C@H]1O [AMP]
rate of phosphate generation [5]: 0.043 ± 0.005 µM/mg/min

OC[C@H]1O[C@@H](n2cnc3c(NC4CCCC4)nc(Cl)nc32)[C@H](O)[C@@H]1O [CCPA, 2-chloro-N(6)-cyclopentyladenosine]
mechanical and thermal hypersensitivity / pain threshold in right foot ([6]; 0.1 mM, 20 μl injected in the left (contralateral) Zusanli point): no effect; also recorded: did not alter the pain threshold
mechanical and thermal pain in mice with deletion of A1 receptors ([6]; A1R KO mice): no clinical benefit
paw withdrawal (thermal) ([6]; WT mice, after 0.1 mM, 20 μl in right Zusanli point, before: 3.7±0.3): 12.7 ± 1.5 s
touch sensitivity (percentage of negative responses of 10 Von Frey trials) ([6]; WT mice, after 0.1 mM, 20 μl in right Zusanli point, before: 38.0±2.5): 85.7±2.0%
course of the pain-relieving effect [7]: transient
sensitivity to painful stimulation in the contralateral (left) leg ([7]; injection in right Zusanli point): did not alter sensitivity
fEPSP response in mice with deletion of A1 receptors ([8]; A1R KO mice): failed to respond
fEPSP amplitude ([8]; WT, 0.1 mM 20 μl in right Zusanli point (ipsilateral), within 20 min, before ~0.65 mV): ~0.22 mV
fEPSP amplitude, % of baseline values ([8]; WT, ipsilateral injection, within 20 min): 26.6±11.0%
effect on fEPSP ([8]; administered contralateral to the painful stimulation): no effect
withdrawal of foot (thermal) ([9]; WT mice, after injection in Zusanli point, before: 2.9±0.3): 16.2 ± 2.4 s
touch sensitivity (percentage of negative responses of 10 Von Frey trials) ([9]; WT mice, after injection in Zusanli point, before: 25.0±2.2): 83.3±4.9%
mechanical and thermal hypersensitivity / pain threshold in right foot ([9]; injected in the left (contralateral) Zusanli point): no effect; also recorded: did not alter the pain threshold
